# Assay results taken from publication PMC12579162, “Synthesized Depside Molecules Suppress the Progression of Colorectal Cancer by Binding VDAC1/PHB/MMP9 Being at the Crossroads of Stemness, Motility, Apoptosis, and Metabolism” (MedComm, 2025).
# How the values were obtained:
# [1] = Pharmacokinetic study in rat; type: in vivo, Sprague–Dawley rats; conditions: male, Sprague-Dawley, plasma; for AUC(0-inf): read-out: AUCINF obs
# Experimental: The stock solution of SB4 and SB5 was prepared at a concentration of 1.0 mg/mL in DMSO. Additionally, the standard solutions for SB4 and SB5 were prepared by diluting with 60% ACN (0.1% formic acid) in distilled water (DW). The final concentrations of the prepared standard solutions were 5, 10, 25, 50, 100, 250, 500, and 1000 ng/mL, and they were prepared in 1.5 mL polyethylene microtubes (Axygen Inc., Union City, CA, USA). Furthermore, quality control samples were manufactured using DMSO, with final concentrations of 15 ng/mL (low quality control), 80 ng/mL (mid quality control), and 800 ng/mL (high quality control) using 60% ACN (0.1% formic acid) in DW. The IS solution (Deucravacitinib) was also prepared in DMSO and diluted to a final concentration of 10 ng/mL in 60% ACN (0.1% formic acid) in DW.
# The sample stored at −80°C was dissolved at room temperature, vortexed for 3 s, and a protein precipitation method using ACN was employed. In a 1.5 mL polyethylene microtube, 10 µL of the IS (10 ng/mL) was added to 45 µL of plasma, and 500 µL of ACN was added. Next, the sample was mixed in a vortex (M37610‐33; Barnstead International, USA) for 3 min. Then, 500 µL of the supernatant was centrifuged at 10000 g for 10 min and transferred to a LC vial, from which 10 µL was injected into the LC–MS/MS system.
# The LC–MS/MS system comprises a SCIEX Triple Quad 6500+ system (Melbourne, Australia) coupled with a Shimadzu Nexera series SCL‐40 system controller, DGU‐405 degassing unit, LC‐40D X3 solvent delivery module, SIL‐40C X3 autosampler, and CTO‐40C column oven (Melbourne, Australia).
# Chromatographic separations were performed using a Synergi 4 µm Hydro‐RP 80 Å, LC Column (30 × 2 mm). The mobile phase consisted of 0.1% FA in DW and ACN in 0.1% FA. The optimal flow rate was 0.5 mL/min, and the linear gradient elution profile was as follows: 0–0.5 min 20% B, 0.5–1.0 min 80% B, 1.0–2.0 min 80% B, 2.0–2.5 min 20% B, 2.5–3.0 min 20% B. The injection volume was 5 µL, and the total analysis time per sample was 3.0 min. The column oven temperature was maintained at 40°C.
# The sample was ionized by an electrospray ionization source. The mass spectrometer was operated in positive ion mode with MRM scan mode for high sensitivity and selectivity. The turbo ion gas temperature was set at 400°C. To optimize the source parameters and compound parameters, a standard solution of 10 ng/mL was injected into the mass spectrometer at a rate of 7 µL/min through an infusion pump. The MRM transitions selected for quantification were m/z 375.075 to 150.100 for DA, m/z 447.113 to 415.200 for SB‐04, m/z 461.119 to 429.100 for SB‐05, and m/z 426.093 to 358.000 for the IS (Deucravacitinib). The system operating programs were Analyst software (version 1.7.2) and Chromelon.
# The animal testing procedure was approved by the Animal Management Committee of Dankook University (21‐038). Seven‐week‐old male Sprague–Dawley rats (weighing 250–290 g) were purchased from Samtaco Inc. (Osan, South Korea). All rats were housed randomly in groups of four, maintained under appropriate lighting and room conditions (22 ± 2°C, relative humidity 50 ± 10%, with a 12‐h light/dark cycle). Prior to the experiments, the rats had free access to food (Samtaco Inc.) and water in their cages. The animal experiments were conducted after a minimum environmental adaptation period of 1 week. On the day of the experiments, the jugular vein of each rat was cannulated individually with polyethylene tubing (Clay Adams, Parsippany, NJ, USA) under anesthesia. The cannula was exteriorized to the dorsal side of the neck, where the cannula terminated with a long silastic tubing (Dow Corning, Midland, MI, USA). The silastic tube was covered with a wire to allow free movement of the rat. Each rat was housed individually in a rat metabolic cage (Daejong Scientific Company, Seoul, Korea) and was allowed to recover from anesthesia for 4–5 h before the study began. The rats were not restrained during the experimental period. […]
# [2] = system: CRC cells; assay: Transwell invasion assay; type: cell-based, human; conditions: 5 µM, 24 h, versus vehicle-treated control
# [3] = system: HCT116 cells; assay: MTT cell viability, HCT116; type: cell-based; conditions: Homo sapiens, HCT-116; 48 h, MTT assay
# Experimental: (§1) Cells (3 × 10^3 cells/well) were seeded on a 96‐well plate, grown overnight, and then treated with compounds at indicated concentrations for 48 h. After incubation with MTT for 4 h at 37°C, cells were lysed with 150 µL of DMSO (Sigma–Aldrich, St. Louis, USA). Absorbance was measured at 570 nm on a microplate reader with the Gen5 software (v.2.03.1; BioTek, Winooski, VT, USA).
# [4] = system: CSC221 cells; assay: Spheroid formation assay, CSC221; type: cell-based, human; conditions: for spheroid formation, cotreatment with cetuximab: CSC221, 5 µM with cetuximab 10, 25, and 50 µg/mL, 2 weeks; for spheroid formation: CSC221, up to 10 µM, 14 days, compared with TU and DA
# Experimental: Monolayer cells were separated into single‐cell suspensions at around 70% confluence using a solution of trypsin. After that, the cells were added to N2‐supplemented DMEM/F12 that contained human basal fibroblast growth factor and human recombinant epidermal growth factor. Cells seeded at a density of 5 × 10^3 cells/well in ultra‐low attachment 24‐well plates (Corning Inc., Corning, NY, USA). After 10–14 days of culture, spheres were quantitated by inverted phase contrast microscopy. The relative sphere formation ability was calculated through the IMT iSolution software (IMT iSolution Inc., Northampton, NJ, USA) measuring the pixel intensity of the sphere area randomly in each plate.
# [5] = system: CT26 cells; assay: MTT cell viability, CT26; type: cell-based; conditions: Mus musculus, 48 h, MTT assay
# Experimental: as §1
# [6] = system: caspase 3/7 in CRC cells; assay: Caspase-Glo 3/7 activity; type: cell-based, human; conditions: 10 µM, 48 h, relative to DMSO
# Experimental: Caspase 3/7 activity was determined with a Caspase-Glo 3/7 assay kit (Promega). CRC cells were seeded in 96 well plates, 10000 per well cells, with media containing 2% FBS. Treatments were applied after overnight incubation, incubated for 48 hours. After treatment, Caspase-Glo reagent was added to each well and incubated in the dark for 1 hour. […] was recorded with the GloMax® Microplate Reader.
# [7] = system: SW620 cells; assay: MTT cell viability, SW620; type: cell-based; conditions: Homo sapiens, SW-620; 48 h, MTT assay
# Experimental: as §1
# [8] = system: HT29 cells; assay: MTT cell viability, HT29; type: cell-based; conditions: Homo sapiens, HT-29; 48 h, MTT assay
# Experimental: as §1
AUC(0-t) ([1]; IP 10 mg/kg),Cmax ([1]; IP 10 mg/kg),Tmax ([1]; IP 10 mg/kg),AUC(0-inf) ([1]; IP 10 mg/kg),AUC(0-t) ([1]; PO 10 mg/kg),Cmax ([1]; PO 10 mg/kg),Tmax ([1]; PO 10 mg/kg),IC50 [3],IC50 [5],IC50 [7],IC50 [8],SMILES,number of invaded cells [2],"spheroid formation, cotreatment with cetuximab [4]",spheroid formation [4],caspase 3/7 activity [6]
108 ± 17.9 ng·h/mL,45.63 ± 0.31 ng/mL,0.31 ± 0.13 h,209 ± 32.4 ng·h/mL,87.1 ± 11.8 ng·h/mL,22 ± 8.01 ng/mL,4.13 ± 2.59 h,4.5 µM,2.27 µM,2.27 µM,7.47 µM,"COCCCOc1c(C)c(OC(=O)c2c(C)cc(OC)c(C)c2OC)cc(C)c1C(=O)OC [SB5, 4-(Methoxycarbonyl)-3-(3-methoxypropoxy)-2,5-dimethylphenyl 2,4-dimethoxy-3,6-dimethylbenzoate]",significantly reduced the number of invaded cells,significantly reduced the adverse effects of cetuximab,suppress spheroid formation more strongly than TU and DA,induced
173 ± 16.3 ng·h/mL,60.8 ± 18.2 ng/mL,0.31 ± 0.13 h,394 ± 172 ng·h/mL,113 ± 19.2 ng·h/mL,27.8 ± 14.7 ng/mL,2.88 ± 2.59 h,11.7 µM,5.33 µM,5.33 µM,3.95 µM,"COCCOc1c(C)c(OC(=O)c2c(C)cc(OC)c(C)c2OC)cc(C)c1C(=O)OC [SB4, 4-(Methoxycarbonyl)-3-(2-methoxyethoxy)-2,5-dimethylphenyl 2,4-dimethoxy-3,6-dimethylbenzoate]",significantly reduced the number of invaded cells,significantly reduced the adverse effects of cetuximab,suppress spheroid formation more strongly than TU and DA,induced
